According to PubChem BioAssay AID2305 (GlaxoSmithKline (GSK), 2010):
Values joined by “and” are separate entries in the source; they are usually repeats but may differ in a detail not shown here. Equal entries are not always repeated.

system: P. falciparum 3D7 growth, pLDH absorbance; assay: P. falciparum 3D7 growth inhibition, dose response, strain 3D7 (AID 2305)

**Q.** `CC1CN(Cc2cccc(-c3ccc(-c4nc5ccccc5[nH]4)cc3)c2)CC(C)O1` (stereo not drawn) was tested. Which IC50 did it give?
**A.** 860 nM

**Q.** How did the IC50 turn out when `COc1ccc(Br)cc1/C=C/C(=O)Nc1ccc2c(c1)CCCN(C)C2` was run?
**A.** 1560 nM

**Q.** With `CN1CCN(CCCCCNc2c3ccccc3nc3ccccc23)CC1` as the compound, how does the IC50 read?
**A.** 740 nM

**Q.** With `O=C(Nc1ccc(Oc2ccccc2)cc1)N[C@H]1CCN(Cc2ccc(OCCCN3CCCCC3)cc2)C1` as the compound, how does the IC50 read?
**A.** 180 nM

**Q.** With `CC(=O)Nc1nc(C)c(-c2csc(Nc3ccc(Cl)cc3)n2)s1` as the compound, how does the IC50 read?
**A.** 260 nM

**Q.** How did the IC50 turn out when `CCN(CC)CCN(Cc1ccc(-c2ccc(C(F)(F)F)cc2)cc1)C(=O)Cn1c(CCC2CCCCC2)nc(=O)c2ccccc21` was run?
**A.** 1390 nM

**Q.** With `Cc1cccc(Cn2c(Cc3ccccc3)nnc2Sc2ccc([N+](=O)[O-])c(C#N)c2)c1` as the compound, how does the IC50 read?
**A.** 1140 nM

**Q.** Which IC50 does the source give for `CN1CCC(c2ccc(NC(=O)c3ccc(-c4cccc(C(F)(F)F)c4)o3)cc2)CC1` here?
**A.** 1130 nM

**Q.** For `CN(C)CCCOc1cccc(NC(=O)Nc2ccc(Cl)c(Cl)c2)c1`, which IC50 is on record?
**A.** 960 nM

**Q.** With `NC(=O)c1ccc(-n2cnc3cc(F)ccc32)cc1OCc1ccccc1C(F)(F)F` (tested in a mixture with another compound) as the compound, how does the IC50 read?
**A.** 360 nM

**Q.** Which IC50 does the source give for `CC1CCN(CCNC(=O)c2ccc3c(=O)n(Cc4ccc(Cl)cc4)c(=S)[nH]c3c2)CC1` here?
**A.** 700 nM

**Q.** How did the IC50 turn out when `O=C(Nc1cc(Cl)cc(Cl)c1)c1cc(Cl)c(=O)n(Cc2cccc(Cl)c2)c1` was run?
**A.** 750 nM

**Q.** For `N[C@@H](CCNCc1ccc(-c2cccnc2)cc1)Cc1ccc(F)c(F)c1`, which IC50 is on record?
**A.** 800 nM

**Q.** For `CCc1c[nH]c2c(N3CCCC3=O)cc(C(=O)N[C@@H](Cc3ccccc3)[C@H](O)CNC(C)(C)c3cccc(C(F)(F)F)c3)cc12`, which IC50 is on record?
**A.** 120 nM

**Q.** With `O=C(CCCCCNC(=O)c1ccc(O)c(-c2ccc(Cl)c(Cl)c2)c1)NCCN1CCCC1` as the compound, how does the IC50 read?
**A.** 980 nM

**Q.** How did the IC50 turn out when `C[C@H](Cc1ccc(OCCCCCCOc2ccc(C[C@@H](C)N[C@H](C)c3ccccc3)cc2)cc1)NC[C@H](O)c1cccc(Cl)c1` was run?
**A.** 240 nM

**Q.** `O=C(Nc1c(F)cccc1F)c1cccc(-c2nn3ccccc3c2-c2ccnc(Nc3cccc(-c4cnco4)c3)n2)c1` was tested. Which IC50 did it give?
**A.** 360 nM

**Q.** `CC(Cc1ccc(OCCN2CCN(c3ccc(Cl)cc3)CC2)cc1)NCC(O)c1cccc(C(F)(F)F)c1` (stereo not drawn) was tested. Which IC50 did it give?
**A.** 810 nM

**Q.** `COCCN(C)CCCOc1cc2c(cc1OC)ncn2-c1cc(OCc2ccccc2C(F)(F)F)c(C(N)=O)s1` was tested. Which IC50 did it give?
**A.** 710 nM

**Q.** Which IC50 does the source give for `O=S(=O)(NCCN1CCCC1)c1ccc(-c2ccc(CNC3Cc4ccccc4C3)cc2)cc1F` here?
**A.** 1000 nM

**Q.** `Cc1cc(NC(=O)Nc2ccc3sccc3c2)c2ccccc2n1` was tested. Which IC50 did it give?
**A.** 530 nM

**Q.** Which IC50 does the source give for `O=C(Nc1ccc(Cl)c(C(F)(F)F)c1)NC1CCN(CCCCCNC(=O)[C@@H]2C[C@H]2c2ccc(Cl)c(Cl)c2)CC1` here?
**A.** 680 nM

**Q.** Which IC50 does the source give for `COC(=O)C(C)(C)Cc1c(SC(C)(C)C)c2cc(C(C)C)ccc2n1Cc1ccc(Cl)cc1` here?
**A.** 850 nM

**Q.** With `O=C(Nc1ccc(C(F)(F)F)cc1)c1ccc(NCCCN2CCCCCC2)c([N+](=O)[O-])c1` as the compound, how does the IC50 read?
**A.** 320 nM

**Q.** Which IC50 does the source give for `COc1ccc(-c2cncc3ccc(C(=O)NCc4ccncc4)nc23)cc1` here?
**A.** 740 nM

**Q.** Which IC50 does the source give for `OCC1CCN(Cc2cccc(-c3ccc(-c4nc5ccc(C(F)(F)F)cc5[nH]4)cc3)c2)CC1` here?
**A.** 660 nM

**Q.** With `Cc1c(F)cc(C(=O)NC2CC2)cc1-c1ccc2c(c1)c(C)nn2S(=O)(=O)c1cccs1` as the compound, how does the IC50 read?
**A.** 940 nM

**Q.** How did the IC50 turn out when `O=C(Nc1cccc(-c2ccc(-c3nc4ccc(C(F)(F)F)cc4[nH]3)cc2)c1)c1ccncc1` was run?
**A.** 340 nM

**Q.** How did the IC50 turn out when `CC(=O)Nc1ccc(CN2CCC(N(C)c3cc(NC(=O)c4cccc(F)c4)ccn3)CC2)cc1` was run?
**A.** 1380 nM

**Q.** With `CC(=O)NC1=NC(C)(C)N(OCCCOc2ccc(Cl)c(Cl)c2)C(NC(C)=O)=N1` as the compound, how does the IC50 read?
**A.** 10 nM

**Q.** `OCCCCCCN=Cc1[nH]c(=S)sc1O` was tested. Which IC50 did it give?
**A.** 850 nM

**Q.** `Cc1ccc(O)cc1Nc1ccnc2cc(-c3csc(CN4CCN(C)CC4)n3)ccc12` was tested. Which IC50 did it give?
**A.** 600 nM

**Q.** For `Cc1nnnn1-c1ccc(C(=O)N2CCC3(CC2)CN(Cc2ccc(Cl)c(Cl)c2)C(=O)O3)cc1`, which IC50 is on record?
**A.** 180 nM

**Q.** `Cc1cc(N[C@@H](CC(C)C)C(=O)NCCOc2ccccc2)nc(Nc2ccccc2)n1` was tested. Which IC50 did it give?
**A.** 1110 nM

**Q.** With `COc1ccc2nc(C)cc(Nc3ccc(N4CCN(C)CC4)cc3)c2c1` as the compound, how does the IC50 read?
**A.** 790 nM

**Q.** How did the IC50 turn out when `O=[N+]([O-])c1ccc2nc(Nc3ccc(Cl)c(Cl)c3)c(Nc3ccc(Cl)c(Cl)c3)nc2c1` was run?
**A.** 790 nM

**Q.** How did the IC50 turn out when `CCC(=O)Oc1ccc(NC(=O)c2cccc(OC)c2)cc1` was run?
**A.** 770 nM

**Q.** `COc1cc(-n2c(CN3CCCC3)nc3cc(-c4ccc(Cl)cc4)sc3c2=O)ccc1OCCN1CCCC1` was tested. Which IC50 did it give?
**A.** 1040 nM

**Q.** Which IC50 does the source give for `CN(C)Cc1ccc(-c2cc3c(-c4ccc(CN(C)C)cc4)ccnc3[nH]2)cc1` here?
**A.** 890 nM

**Q.** With `Cc1cc(NN=Cc2cccc([N+](=O)[O-])c2)c2cc(F)ccc2n1` as the compound, how does the IC50 read?
**A.** 590 nM

**Q.** With `N#Cc1ccc(N[C@@H](CC2CCCCC2)C(=O)NCc2cc(Cl)cc(Cl)c2)c2ccccc12` as the compound, how does the IC50 read?
**A.** 1100 nM

**Q.** With `CS(=O)(=O)c1ccc(CNCc2cccc(-c3cccc(-c4nc5ccc(F)cc5[nH]4)c3)c2)cc1` as the compound, how does the IC50 read?
**A.** 560 nM

**Q.** `CC(=O)c1cccc2cc(C(=O)NC3CCC(CCN4CCc5ccc(C#N)cc5C4)CC3)[nH]c12` (stereo not drawn) was tested. Which IC50 did it give?
**A.** 790 nM

**Q.** For `CC(=O)N(C)C1CCN(Cc2cccc(-c3ccc(-c4nc5ccc(C(F)(F)F)cc5[nH]4)cc3)c2)C1` (stereo not drawn), which IC50 is on record?
**A.** 560 nM

**Q.** Which IC50 does the source give for `COc1ccc(C(=O)[C@H]2C[C@@H]2CN2CC=C(c3c[nH]c4ccccc34)CC2)cc1` here?
**A.** 530 nM

**Q.** Which IC50 does the source give for `CCCC(C)NC(=O)[C@H]1CNCCN1C(=O)CCCc1ccccc1` (stereo partly drawn) here?
**A.** 190 nM

**Q.** With `CCn1ncc(Cl)c1CN(C)S(=O)(=O)c1ccc2ccccc2c1` as the compound, how does the IC50 read?
**A.** 820 nM

**Q.** With `Oc1ccc2ccccc2c1CNC1CCCCCC1` as the compound, how does the IC50 read?
**A.** 930 nM

**Q.** For `O=C(Cc1c(-c2ccccc2)[nH]c2ccccc12)NC1CCC(CN2CCC(c3c[nH]c4ccccc34)CC2)CC1` (stereo not drawn), which IC50 is on record?
**A.** 480 nM

**Q.** `O=C(/C=C/c1ccc(Cl)c(Cl)c1)N1CCC(CN2CCC(Cc3nc4ccccc4[nH]3)CC2)CC1` was tested. Which IC50 did it give?
**A.** 250 nM

**Q.** With `COc1ccc(Br)cc1/C=C/C(=O)Nc1ccc(C2CCCN(C)C2)cc1` (stereo not drawn) as the compound, how does the IC50 read?
**A.** 630 nM

**Q.** Which IC50 does the source give for `CCOc1ccccc1C=CC(=O)Nc1ccc2nc(N3CCN(C)CC3)cc(C)c2c1` here?
**A.** 270 nM

**Q.** For `O=C(/C=C/c1ccc(Cl)c(Cl)c1)NC1CCC(CN2CCC(c3nc4ccc(O)cc4[nH]3)CC2)CC1` (stereo not drawn), which IC50 is on record?
**A.** 240 nM

**Q.** For `COc1ccc2nccc([C@@H](O)CN3CCC(NCc4ccc5c(c4)nnn5C(C)C)CC3)c2c1`, which IC50 is on record?
**A.** 640 nM

**Q.** `COc1ccc2nccc([C@@H](O)CN3CC[C@H](NCc4cnc5c(c4)NC(=O)CS5)[C@H](F)C3)c2c1` was tested. Which IC50 did it give?
**A.** 770 nM

**Q.** `NC(=O)c1ccc2[nH]cc(C3CCN(CC4CCC(NC(=O)/C=C/c5ccc(Cl)c(Cl)c5)CC4)CC3)c2c1` (stereo not drawn) was tested. Which IC50 did it give?
**A.** 870 nM and 760 nM

**Q.** With `O=C(CCNc1ccnc(NCCc2ccc(F)cc2)n1)Nc1ccccc1` as the compound, how does the IC50 read?
**A.** 830 nM

**Q.** `Cc1c(CNCCCNc2nc3ccccc3[nH]2)sc(C(F)F)c1Br` was tested. Which IC50 did it give?
**A.** 290 nM

**Q.** `CCCCc1cc(Cc2cnc(N)nc2N)cc(OC)c1OC` was tested. Which IC50 did it give?
**A.** 1040 nM

**Q.** With `CCOC(C(=O)OCCN(C(C)C)C(C)C)(c1ccccc1)c1ccccc1` as the compound, how does the IC50 read?
**A.** 870 nM

**Q.** Which IC50 does the source give for `O=C(Nc1ccccc1)Nc1ccc(-c2cccc(-c3nc4ccc(C(F)(F)F)cc4[nH]3)c2)cc1` here?
**A.** 730 nM

**Q.** With `CC[C@H]1CN(Cc2ccco2)CC[C@H]1CCCc1ccnc2ccc(O)cc12` as the compound, how does the IC50 read?
**A.** 1270 nM

**Q.** Which IC50 does the source give for `O=C(c1ccc(Br)o1)N1N=C(c2cccs2)CC1c1ccc(Br)cc1` (stereo not drawn) here?
**A.** 510 nM

**Q.** Which IC50 does the source give for `COc1cccc(-c2cnc(-c3ccncc3)nc2C2CCN(Cc3ccc(NC(C)=O)cc3)CC2)c1` here?
**A.** 1500 nM

**Q.** Which IC50 does the source give for `NC1CCN(Cc2ccc(-c3ccc(-c4nc5ccccc5[nH]4)cc3)cc2)C1` (stereo not drawn) here?
**A.** 150 nM

**Q.** How did the IC50 turn out when `Cc1ccc(C)c(NC(=O)NC2CCN(c3ccnc(Nc4ccc(F)cc4)n3)C2)c1` (stereo not drawn) was run?
**A.** 680 nM

**Q.** `Cc1nc2ccc(NC(=O)c3cc(S(=O)(=O)N(C)C)ccc3Cl)cc2s1` was tested. Which IC50 did it give?
**A.** 820 nM

**Q.** How did the IC50 turn out when `CCN(CC)CCCC(C)Nc1c(-c2ccc(OC)cc2)cnc2ccccc12` (stereo not drawn) was run?
**A.** 890 nM
